According to ChEMBL document CHEMBL1649265, “Antimicrobial susceptibilities of Mycoplasma genitalium strains examined by broth dilution and quantitative PCR” (2009):
≈ marks a conversion by molar mass, not a printed value.

What was measured:
Assay type in all cases: functional
Mycoplasma genitalium [1] = assay: Antibacterial activity against Mycoplasma genitalium by broth dilution method; details: Mycoplasmoides genitalium; for MIC50: read-out: MIC50; for MIC90: read-out: MIC90
Mycoplasma genitalium [2] = assay: Antibacterial activity against Mycoplasma genitalium G37 by broth dilution method; details: Mycoplasmoides genitalium, read-out: MIC
Mycoplasma genitalium [3] = assay: Antibacterial activity against Mycoplasma genitalium M30 by broth dilution method; details: Mycoplasmoides genitalium, read-out: MIC
Mycoplasma genitalium [4] = assay: Antibacterial activity against Mycoplasma genitalium R32 by broth dilution method; details: Mycoplasmoides genitalium, read-out: MIC
Mycoplasma genitalium [5] = assay: Antibacterial activity against Mycoplasma genitalium TW10-5G by broth dilution method; details: Mycoplasmoides genitalium, read-out: MIC
Mycoplasma genitalium [6] = assay: Antibacterial activity against Mycoplasma genitalium TW10-6G by broth dilution method; details: Mycoplasmoides genitalium, read-out: MIC
Mycoplasma genitalium [7] = assay: Antibacterial activity against Mycoplasma genitalium TW48-5G by broth dilution method; details: Mycoplasmoides genitalium, read-out: MIC
Mycoplasma genitalium [8] = assay: Antibacterial activity against Mycoplasma genitalium UTMB-10G by broth dilution method; details: Mycoplasmoides genitalium, read-out: MIC
Mycoplasma genitalium [9] = assay: Antibacterial activity against Mycoplasma genitalium M2282 by broth dilution method; details: Mycoplasmoides genitalium
Mycoplasma genitalium [10] = assay: Antibacterial activity against Mycoplasma genitalium M2300 by broth dilution method; details: Mycoplasmoides genitalium
Mycoplasma genitalium [11] = assay: Antibacterial activity against Mycoplasma genitalium M2321 by broth dilution method; details: Mycoplasmoides genitalium
Mycoplasma genitalium [12] = assay: Antibacterial activity against Mycoplasma genitalium M2341 by broth dilution method; details: Mycoplasmoides genitalium
Mycoplasma genitalium [13] = assay: Antibacterial activity against Mycoplasma genitalium M6257 by broth dilution method; details: Mycoplasmoides genitalium
Mycoplasma genitalium [14] = assay: Antibacterial activity against Mycoplasma genitalium M6280 by broth dilution method; details: Mycoplasmoides genitalium
Mycoplasma genitalium [15] = assay: Antibacterial activity against Mycoplasma genitalium M6285 by broth dilution method; details: Mycoplasmoides genitalium
Mycoplasma genitalium [16] = assay: Antibacterial activity against Mycoplasma genitalium M6286 by broth dilution method; details: Mycoplasmoides genitalium
Mycoplasma genitalium [17] = assay: Antibacterial activity against Mycoplasma genitalium M6328 by broth dilution method; details: Mycoplasmoides genitalium
Mycoplasma genitalium [18] = assay: Antibacterial activity against Mycoplasma genitalium M6090 by broth dilution method; details: Mycoplasmoides genitalium
Mycoplasma genitalium [19] = assay: Antibacterial activity against Mycoplasma genitalium M6151 by broth dilution method; details: Mycoplasmoides genitalium
Mycoplasma genitalium [20] = assay: Antibacterial activity against Mycoplasma genitalium M6282 by broth dilution method; details: Mycoplasmoides genitalium
Mycoplasma genitalium [21] = assay: Antibacterial activity against Mycoplasma genitalium M6283 by broth dilution method; details: Mycoplasmoides genitalium
Mycoplasma genitalium [22] = assay: Antibacterial activity against Mycoplasma genitalium M6284 by broth dilution method; details: Mycoplasmoides genitalium
Mycoplasma genitalium [23] = assay: Antibacterial activity against Mycoplasma genitalium M6287 by broth dilution method; details: Mycoplasmoides genitalium
Mycoplasma genitalium [24] = assay: Antibacterial activity against Mycoplasma genitalium by quantitative TaqMan PCR method; details: Mycoplasmoides genitalium

SMILES	MIC (Mycoplasma genitalium [2])	MIC (Mycoplasma genitalium [3])	MIC (Mycoplasma genitalium [4])	MIC (Mycoplasma genitalium [5])	MIC (Mycoplasma genitalium [6])	MIC (Mycoplasma genitalium [7])	MIC (Mycoplasma genitalium [8])	MIC (Mycoplasma genitalium [9])	MIC (Mycoplasma genitalium [10])	MIC (Mycoplasma genitalium [11])	MIC (Mycoplasma genitalium [12])	MIC (Mycoplasma genitalium [13])	MIC (Mycoplasma genitalium [14])	MIC (Mycoplasma genitalium [15])	MIC (Mycoplasma genitalium [16])	MIC (Mycoplasma genitalium [17])	MIC (Mycoplasma genitalium [18])	MIC (Mycoplasma genitalium [19])	MIC (Mycoplasma genitalium [20])	MIC (Mycoplasma genitalium [21])	also measured
CN(C)c1ccc(O)c2c1C[C@H]1C[C@H]3[C@H](N(C)C)C(O)=C(C(N)=O)C(=O)[C@@]3(O)C(O)=C1C2=O [MINOCYCLINE]	0.031 µg/mL (≈ 0.0678 µM)	0.031 µg/mL (≈ 0.0678 µM)	0.031 µg/mL (≈ 0.0678 µM)	0.031 µg/mL (≈ 0.0678 µM)	0.031 µg/mL (≈ 0.0678 µM)	0.031 µg/mL (≈ 0.0678 µM)	0.031 µg/mL (≈ 0.0678 µM)	0.063 µg/mL (≈ 0.138 µM)	0.063 µg/mL (≈ 0.138 µM)	0.063 µg/mL (≈ 0.138 µM)	0.063 µg/mL (≈ 0.138 µM)	0.063 µg/mL (≈ 0.138 µM)	0.063 µg/mL (≈ 0.138 µM)	0.063 µg/mL (≈ 0.138 µM)	0.063 µg/mL (≈ 0.138 µM)	0.063 µg/mL (≈ 0.138 µM)	0.063 µg/mL (≈ 0.138 µM)	0.063 µg/mL (≈ 0.138 µM)	0.063 µg/mL (≈ 0.138 µM)	0.063 µg/mL (≈ 0.138 µM)	MIC50 (Mycoplasma genitalium [1]): 0.125 µg/mL (≈ 0.273 µM); MIC90 (Mycoplasma genitalium [1]): 0.25 µg/mL (≈ 0.546 µM); MIC (Mycoplasma genitalium [22]): 0.063 µg/mL (≈ 0.138 µM); MIC (Mycoplasma genitalium [23]): 0.063 µg/mL (≈ 0.138 µM)
COc1c(N2C[C@@H]3CCCN[C@@H]3C2)c(F)cc2c(=O)c(C(=O)O)cn(C3CC3)c12 [MOXIFLOXACIN]	0.063 µg/mL (≈ 0.157 µM)	0.063 µg/mL (≈ 0.157 µM)	0.063 µg/mL (≈ 0.157 µM)	0.063 µg/mL (≈ 0.157 µM)	0.063 µg/mL (≈ 0.157 µM)	0.063 µg/mL (≈ 0.157 µM)	0.063 µg/mL (≈ 0.157 µM)	0.016 µg/mL (≈ 0.0399 µM)	0.016 µg/mL (≈ 0.0399 µM)	0.016 µg/mL (≈ 0.0399 µM)	0.016 µg/mL (≈ 0.0399 µM)	0.016 µg/mL (≈ 0.0399 µM)	0.016 µg/mL (≈ 0.0399 µM)	0.016 µg/mL (≈ 0.0399 µM)	0.016 µg/mL (≈ 0.0399 µM)	0.016 µg/mL (≈ 0.0399 µM)	0.016 µg/mL (≈ 0.0399 µM)	0.016 µg/mL (≈ 0.0399 µM)	0.016 µg/mL (≈ 0.0399 µM)	0.016 µg/mL (≈ 0.0399 µM)	MIC50 (Mycoplasma genitalium [1]): 0.063 µg/mL (≈ 0.157 µM); MIC90 (Mycoplasma genitalium [1]): 0.125 µg/mL (≈ 0.311 µM); MIC50 (Mycoplasma genitalium [24]): 0.063 µg/mL (≈ 0.157 µM); MIC90 (Mycoplasma genitalium [24]): 0.125 µg/mL (≈ 0.311 µM); MIC (Mycoplasma genitalium [22]): 0.016 µg/mL (≈ 0.0399 µM); MIC (Mycoplasma genitalium [23]): 0.016 µg/mL (≈ 0.0399 µM)
N[C@@H]1CN(c2c(F)cc3c(=O)c(C(=O)O)cn([C@@H]4C[C@@H]4F)c3c2Cl)CC12CC2 [SITAFLOXACIN ANHYDROUS]	0.063 µg/mL (≈ 0.154 µM)	0.063 µg/mL (≈ 0.154 µM)	0.063 µg/mL (≈ 0.154 µM)	0.063 µg/mL (≈ 0.154 µM)	0.063 µg/mL (≈ 0.154 µM)	0.063 µg/mL (≈ 0.154 µM)	0.063 µg/mL (≈ 0.154 µM)	0.008 µg/mL (≈ 0.0195 µM)	0.008 µg/mL (≈ 0.0195 µM)	0.008 µg/mL (≈ 0.0195 µM)	0.008 µg/mL (≈ 0.0195 µM)	0.008 µg/mL (≈ 0.0195 µM)	0.008 µg/mL (≈ 0.0195 µM)	0.008 µg/mL (≈ 0.0195 µM)	0.008 µg/mL (≈ 0.0195 µM)	0.008 µg/mL (≈ 0.0195 µM)	0.008 µg/mL (≈ 0.0195 µM)	0.008 µg/mL (≈ 0.0195 µM)	0.008 µg/mL (≈ 0.0195 µM)	0.008 µg/mL (≈ 0.0195 µM)	MIC50 (Mycoplasma genitalium [1]): 0.063 µg/mL (≈ 0.154 µM); MIC90 (Mycoplasma genitalium [1]): 0.125 µg/mL (≈ 0.305 µM); MIC50 (Mycoplasma genitalium [24]): 0.063 µg/mL (≈ 0.154 µM); MIC90 (Mycoplasma genitalium [24]): 0.125 µg/mL (≈ 0.305 µM); MIC (Mycoplasma genitalium [22]): 0.008 µg/mL (≈ 0.0195 µM); MIC (Mycoplasma genitalium [23]): 0.008 µg/mL (≈ 0.0195 µM)
CN(C)[C@@H]1C(O)=C(C(N)=O)C(=O)[C@@]2(O)C(O)=C3C(=O)c4c(O)cccc4[C@@](C)(O)[C@H]3C[C@@H]12 [TETRACYCLINE]	0.063 µg/mL (≈ 0.142 µM)	0.063 µg/mL (≈ 0.142 µM)	0.063 µg/mL (≈ 0.142 µM)	0.063 µg/mL (≈ 0.142 µM)	0.063 µg/mL (≈ 0.142 µM)	0.063 µg/mL (≈ 0.142 µM)	0.063 µg/mL (≈ 0.142 µM)	0.063 µg/mL (≈ 0.142 µM)	0.063 µg/mL (≈ 0.142 µM)	0.063 µg/mL (≈ 0.142 µM)	0.063 µg/mL (≈ 0.142 µM)	0.063 µg/mL (≈ 0.142 µM)	0.063 µg/mL (≈ 0.142 µM)	0.063 µg/mL (≈ 0.142 µM)	0.063 µg/mL (≈ 0.142 µM)	0.063 µg/mL (≈ 0.142 µM)	0.063 µg/mL (≈ 0.142 µM)	0.063 µg/mL (≈ 0.142 µM)	0.063 µg/mL (≈ 0.142 µM)	0.063 µg/mL (≈ 0.142 µM)	MIC50 (Mycoplasma genitalium [1]): 0.125 µg/mL (≈ 0.281 µM); MIC90 (Mycoplasma genitalium [1]): 0.5 µg/mL (≈ 1.13 µM); MIC50 (Mycoplasma genitalium [24]): 0.5 µg/mL (≈ 1.13 µM); MIC90 (Mycoplasma genitalium [24]): 2 µg/mL (≈ 4.5 µM); MIC (Mycoplasma genitalium [22]): 0.063 µg/mL (≈ 0.142 µM); MIC (Mycoplasma genitalium [23]): 0.063 µg/mL (≈ 0.142 µM)
C[C@H]1c2cccc(O)c2C(=O)C2=C(O)[C@]3(O)C(=O)C(C(N)=O)=C(O)[C@@H](N(C)C)[C@@H]3[C@@H](O)[C@@H]21.O [DOXYCYCLINE]	0.063 µg/mL	0.063 µg/mL	0.063 µg/mL	0.063 µg/mL	0.063 µg/mL	0.063 µg/mL	0.063 µg/mL	0.063 µg/mL	0.063 µg/mL	0.063 µg/mL	0.063 µg/mL	0.063 µg/mL	0.063 µg/mL	0.063 µg/mL	0.063 µg/mL	0.063 µg/mL	0.063 µg/mL	0.063 µg/mL	0.063 µg/mL	0.063 µg/mL	MIC50 (Mycoplasma genitalium [1]): 0.125 µg/mL; MIC90 (Mycoplasma genitalium [1]): 0.25 µg/mL; MIC50 (Mycoplasma genitalium [24]): 0.25 µg/mL; MIC90 (Mycoplasma genitalium [24]): 0.5 µg/mL; MIC (Mycoplasma genitalium [22]): 0.063 µg/mL; MIC (Mycoplasma genitalium [23]): 0.063 µg/mL
O=C(O)c1cn(C2CC2)c2cc(N3CCNCC3)c(F)cc2c1=O [CIPROFLOXACIN]	0.004 µg/mL (≈ 0.0121 µM)	0.004 µg/mL (≈ 0.0121 µM)	0.004 µg/mL (≈ 0.0121 µM)	0.004 µg/mL (≈ 0.0121 µM)	0.004 µg/mL (≈ 0.0121 µM)	0.004 µg/mL (≈ 0.0121 µM)	0.004 µg/mL (≈ 0.0121 µM)	0.063 µg/mL (≈ 0.19 µM)	0.063 µg/mL (≈ 0.19 µM)	0.063 µg/mL (≈ 0.19 µM)	0.063 µg/mL (≈ 0.19 µM)	0.063 µg/mL (≈ 0.19 µM)	0.063 µg/mL (≈ 0.19 µM)	0.063 µg/mL (≈ 0.19 µM)	0.063 µg/mL (≈ 0.19 µM)	0.063 µg/mL (≈ 0.19 µM)	0.063 µg/mL (≈ 0.19 µM)	0.063 µg/mL (≈ 0.19 µM)	0.063 µg/mL (≈ 0.19 µM)	0.063 µg/mL (≈ 0.19 µM)	MIC50 (Mycoplasma genitalium [24]): 2 µg/mL (≈ 6.04 µM); MIC90 (Mycoplasma genitalium [24]): 8 µg/mL (≈ 24.1 µM); MIC (Mycoplasma genitalium [22]): 0.063 µg/mL (≈ 0.19 µM); MIC (Mycoplasma genitalium [23]): 0.063 µg/mL (≈ 0.19 µM)
